Results reported in patent US20050197350A1, “Novel quinoline, tetrahydroquinazoline, and pyrimidine derivatives and methods of treatment related to the use thereof” (TAISHO PHARMACEUTICAL CO., LTD., priority 2003, published 2005).

What follows are compounds tested on MCH receptors (assay: MCH receptor activity class (method not given)). Details: not given.
`Cc1cc(N[C@H]2CC[C@@H](NC(=O)Nc3cccc(Oc4ccccc4)c3)CC2)nc2ccccc12` [Example 2560, N-{cis-4-[(4-methylquinolin-2-yl)amino]cyclohexyl}-N′-(3-phenoxyphenyl)urea] was tested, and the class was 2. Compound `Cc1cc(N[C@H]2CC[C@@H](NC(=O)c3cccc(C(F)(F)F)c3)CC2)nc2ccccc12` [Example 2546, N-{cis-4-[(4-methylquinolin-2-yl)amino]cyclohexyl}-3-(trifluoromethyl)benzamide] has a class of 3.

Same assay, conditions: MCH receptor activity class 1-3 (percent of control at 10^-7 M or IC50)
`CC(C)c1ccccc1NC(=O)NC[C@H]1CC[C@@H](Nc2cc(N(C)C)c3ccccc3n2)CC1` [compound 2380] was tested, and the class was 3 (Class 3 The value of percent of control at 10^−7 M was more than 60% or the value of IC50 was more than 200 nM.).

Same assay, conditions: MCH receptor; class by percent of control at 10^-7 M or IC50
For `Cc1ccc(C(=O)N[C@H]2CC[C@@H](Nc3cc(N(C)C)c4ccccc4n3)CC2)cc1F` [compound 74, N-(cis-4-{[4-(dimethylamino)quinolin-2-yl]amino}cyclohexyl)-3-fluoro-4-methylbenzamide], the class was 2 (Class 2: The value of percent of control at 10^−7 M was from 40% to 60% or the value of IC′50 was from 50 nM to 200 nM.). `CCCN(CCC)S(=O)(=O)c1ccc(C(=O)N[C@H]2CC[C@@H](Nc3cc(N(C)C)c4ccccc4n3)CC2)cc1` [compound 138] was tested, and the class was 3 (Class 3 The value of percent of control at 10^−7 M was more than 60% or the value of IC50 was more than 200 nM.).

Same assay, conditions: activity class 1-3: percent of control at 10^-7 M or IC50
`COc1ccccc1CCNC[C@H]1CC[C@@H](Nc2nccc(N(C)C)n2)CC1` [compound 1531] was tested, and the class was 3 (Class 3 The value of percent of control at 10^−7 M was more than 60% or the value of IC50 was more than 200 nM.). `CN(C)c1ccnc(N[C@H]2CC[C@@H](NCCOc3ccc(Br)cc3)CC2)n1` [compound 1518] was tested, and the class was 3 (Class 3 The value of percent of control at 10^−7 M was more than 60% or the value of IC50 was more than 200 nM.).

Same assay, conditions: activity class per percent of control at 10^-7 M or IC50
In the case of `CN(C)c1nc(N[C@H]2CC[C@@H](NC(=O)CCC(=O)c3ccc(F)cc3)CC2)nc2c1CCCC2` [compound 983], the class is reported as 2 (Class 2: The value of percent of control at 10^−7 M was from 40% to 60% or the value of IC′50 was from 50 nM to 200 nM.).

Same assay, conditions: class 1-3 by percent of control at 10^-7 M or IC50
For `CN(C)c1ccnc(N[C@H]2CC[C@@H](CNC(=O)c3cc(F)ccc3Cl)CC2)n1` [compound 443], the class was 3 (Class 3 The value of percent of control at 10^−7 M was more than 60% or the value of IC50 was more than 200 nM.). For `CN(C)c1nc(N[C@H]2CC[C@@H](CNC(=O)c3cccc(Br)c3)CC2)nc2c1CCCC2` [compound 583, 3-bromo-N-[(cis-4-{[4-(dimethylamino)-5,6,7,8-tetrahydroquinazolin-2-yl]amino}cyclohexyl)methyl]benzamide], the class was 2 (Class 2: The value of percent of control at 10^−7 M was from 40% to 60% or the value of IC′50 was from 50 nM to 200 nM.). For `CN(C)c1nc(N[C@H]2CC[C@@H](CNC(=O)c3cccc(C#N)c3)CC2)nc2c1CCCC2` [compound 591], the class was 3 (Class 3 The value of percent of control at 10^−7 M was more than 60% or the value of IC50 was more than 200 nM.). For `CN(C)c1nc(N[C@H]2CC[C@@H](NC(=O)COCc3ccccc3)CC2)nc2c1CCCC2` [compound 531, 2-(benzyloxy)-N-(cis-4-{[4-(dimethylamino)-5,6,7,8-tetrahydroquinazolin-2-yl]amino}cyclohexyl)acetamide], the class was 2 (Class 2: The value of percent of control at 10^−7 M was from 40% to 60% or the value of IC′50 was from 50 nM to 200 nM.).

Same assay, conditions: class by percent of control at 10^-7 M or IC50
In the case of `Cc1ccccc1CNC[C@H]1CC[C@@H](Nc2nccc(N(C)C)n2)CC1` [compound 1306], the class is reported as 3 (Class 3 The value of percent of control at 10^−7 M was more than 60% or the value of IC50 was more than 200 nM.). For `CCc1cccc(C(C)C)c1NC(=S)N[C@H]1CC[C@@H](Nc2nc3c(c(N(C)C)n2)CCCC3)CC1` [compound 1742], the class was 3 (Class 3 The value of percent of control at 10^−7 M was more than 60% or the value of IC50 was more than 200 nM.). For `CN(C)c1cc(N[C@H]2CC[C@@H](NC(=O)c3ccc([N+](=O)[O-])s3)CC2)nc2ccccc12` [compound 688, N-(cis-4-{[4-(dimethylamino)quinolin-2-yl]amino}cyclohexyl)-5-nitrothiophene-2-carboxamide], the class was 1 (Class 1: The value of percent of control at 10^−7 M was less than 40% or the value of IC50 was less than 50 nM.). `COc1cc(COC(=O)N[C@H]2CC[C@@H](Nc3nccc(N(C)C)n3)CC2)c([N+](=O)[O-])cc1OC` [compound 337] was tested, and the class was 3 (Class 3 The value of percent of control at 10^−7 M was more than 60% or the value of IC50 was more than 200 nM.). `Cc1cc2occ(CN[C@H]3CC[C@@H](Nc4nc5c(c(N(C)C)n4)CCCC5)CC3)c(=O)c2cc1Cl` [compound 1349] was tested, and the class was 3 (Class 3 The value of percent of control at 10^−7 M was more than 60% or the value of IC50 was more than 200 nM.). In the case of `CN(C)c1cc(N[C@H]2CC[C@@H](CNC(=O)c3ccc(-c4ccc(Cl)cc4[N+](=O)[O-])o3)CC2)nc2ccccc12` [compound 791], the class is reported as 3 (Class 3 The value of percent of control at 10^−7 M was more than 60% or the value of IC50 was more than 200 nM.). For `CN(C)c1ccnc(N[C@H]2CC[C@@H](NC(=O)Cc3c(-c4ccccc4)[nH]c4ccccc34)CC2)n1` [compound 869, N-(cis-4-{[4-(dimethylamino)pyrimidin-2-yl]amino}cyclohexyl)-2-(2-phenyl-1H-indol-3-yl)acetamide], the class was 1 (Class 1: The value of percent of control at 10^−7 M was less than 40% or the value of IC50 was less than 50 nM.). For `CN(C)c1ccnc(N[C@H]2CC[C@@H](NC(=O)c3ccccc3Cc3ccccc3)CC2)n1` [compound 824], the class was 3 (Class 3 The value of percent of control at 10^−7 M was more than 60% or the value of IC50 was more than 200 nM.). For `COC(=O)[C@H](CCSC)NC(=O)N[C@H]1CC[C@@H](Nc2nccc(N(C)C)n2)CC1` (relative stereo) [compound 2219], the class was 3 (Class 3 The value of percent of control at 10^−7 M was more than 60% or the value of IC50 was more than 200 nM.). In the case of `CN(C)c1ccnc(N[C@H]2CC[C@@H](CNC(=O)C(Cc3ccccc3)c3ccccc3)CC2)n1` (relative stereo) [compound 930, N-[(cis-4-{[4-(dimethylamino)pyrimidin-2-yl]amino}cyclohexyl)methyl]-2,3-diphenylpropanamide], the class is reported as 2 (Class 2: The value of percent of control at 10^−7 M was from 40% to 60% or the value of IC′50 was from 50 nM to 200 nM.). `CN(C)c1nc(N[C@H]2CC[C@@H](NCCc3ccc(Br)cc3)CC2)nc2c1CCCC2` [compound 1481] was tested, and the class was 3 (Class 3 The value of percent of control at 10^−7 M was more than 60% or the value of IC50 was more than 200 nM.). `COc1ccccc1CCNC[C@H]1CC[C@@H](Nc2cc(N(C)C)c3ccccc3n2)CC1` [compound 1470] was tested, and the class was 3 (Class 3 The value of percent of control at 10^−7 M was more than 60% or the value of IC50 was more than 200 nM.). `Cc1cc(CNC[C@H]2CC[C@@H](Nc3nccc(N(C)C)n3)CC2)ccc1O` [compound 1315] was tested, and the class was 3 (Class 3 The value of percent of control at 10^−7 M was more than 60% or the value of IC50 was more than 200 nM.). With `COc1ccc(Cl)cc1CNC[C@H]1CC[C@@H](Nc2nc3c(c(N(C)C)n2)CCCC3)CC1` [compound 1506] the class was 3 (Class 3 The value of percent of control at 10^−7 M was more than 60% or the value of IC50 was more than 200 nM.). For `Cc1ccc(NC(=O)N[C@H]2CC[C@@H](Nc3nc4c(c(N(C)C)n3)CCCC4)CC2)cc1Cl` [compound 1841], the class was 3 (Class 3 The value of percent of control at 10^−7 M was more than 60% or the value of IC50 was more than 200 nM.). In the case of `CN(C)c1nc(N[C@H]2CC[C@@H](NC(=O)Nc3cc(F)cc(F)c3)CC2)nc2c1CCCC2` [compound 1804], the class is reported as 3 (Class 3 The value of percent of control at 10^−7 M was more than 60% or the value of IC50 was more than 200 nM.). In the case of `COc1c(Br)cc(Br)cc1CNC[C@H]1CC[C@@H](Nc2nc3c(c(N(C)C)n2)CCCC3)CC1` [compound 1413], the class is reported as 1 (Class 1: The value of percent of control at 10^−7 M was less than 40% or the value of IC50 was less than 50 nM.). In the case of `Cc1sc(-c2ccccc2)nc1CC(=O)N[C@H]1CC[C@@H](Nc2nccc(N(C)C)n2)CC1` [compound 851, N-(cis-4-{[4-(dimethylamino)pyrimidin-2-yl]amino}cyclohexyl)-2-(5-methyl-2-phenyl-1,3-thiazol-4-yl)acetamide], the class is reported as 2 (Class 2: The value of percent of control at 10^−7 M was from 40% to 60% or the value of IC′50 was from 50 nM to 200 nM.). For `CN(C)c1nc(N[C@H]2CC[C@@H](CNCc3ccc(N(C)C)c4ccccc34)CC2)nc2c1CCCC2` [compound 1402], the class was 2 (Class 2: The value of percent of control at 10^−7 M was from 40% to 60% or the value of IC′50 was from 50 nM to 200 nM.).

Same assay, conditions: class by percent of control at 10^−7 M or IC50
With `Cc1cnc(N[C@H]2CC[C@@H](C(=O)Nc3cccc(Cl)c3)CC2)nc1N(C)C` [compound 2788, cis-N-(3-chlorophenyl)-4-{[4-(dimethylamino)-5-methylpyrimidin-2-yl]amino}cyclohexanecarboxamide] the class was 1 (Class 1: The value of percent of control at 10^−7 M was less than 40% or the value of IC50 was less than 50 nM.). With `Cc1nc(N[C@H]2CC[C@@H](NC(=O)c3ccc(C(F)(F)F)nc3)CC2)nc(N(C)C)c1C` [compound 2859] the class was 2 (Class 2: The value of percent of control at 10^−7 M was from 40% to 60% or the value of IC′50 was from 50 nM to 200 nM.). For `Cc1cnc(NC[C@H]2CC[C@@H](NC(=O)c3ccc(F)c(Cl)c3)CC2)nc1N(C)C` [compound 2726], the class was 2 (Class 2: The value of percent of control at 10^−7 M was from 40% to 60% or the value of IC′50 was from 50 nM to 200 nM.). With `Cc1cc(N(C)C)nc(N[C@H]2CC[C@@H](NC(=O)c3ccccc3)CC2)n1` [compound 2951, N-(cis-4-{[4-(dimethylamino)-6-methylpyrimidin-2-yl]amino}cyclohexyl)benzamide] the class was 3 (Class 3 The value of percent of control at 10^−7 M was more than 60% or the value of IC50 was more than 200 nM.). In the case of `Cc1cnc(N[C@H]2CC[C@@H](NC(=O)c3ccccc3C(F)(F)F)CC2)nc1N(C)C` [compound 2918], the class is reported as 3 (Class 3 The value of percent of control at 10^−7 M was more than 60% or the value of IC50 was more than 200 nM.).
